Read-outs that look alike come from different tables or passages of the source.

These results are taken from patent publication EP1660440B1, “ACYLOXYALKYL CARBAMATE PRODRUGS, METHODS OF SYNTHESIS AND USE” (priority 2003, dated 2005).

The conditions of series [1]: aqueous buffer, 1 h.
Procedure: (§1) The stabilities of prodrugs were evaluated in one or more in vitro systems using a variety of tissue preparations following methods known in the art. The chemical stability of prodrugs in aqueous buffers at pH's of 2.0, 7.4 and 8.0 were also measured. […] Each preparation was incubated with test compound at 37°C for one hour. Aliquots (50 µL) were removed at 0, 30, and 60 min and quenched with 0.1 % trifluoroacetic acid in acetonitrile.
The conditions of series [2]: rat, s9, 1 h, 2 µM.
Procedure: as §1
In series [3] the test system is Pancreatin. In words: Pancreatin stability. The following applies: 1 % (w/v) pancreatin, 5 µM, pH 7.5, 37 °C, after 60 min. It is filed as in vitro ADME, porcine. On the procedure: Pancreatin Stability: Stability studies were conducted by incubating prodrug (5 µM) with 1 % (w/v) pancreatin (Sigma, P-1625, from porcine pancreas) in 0.025 M Tris buffer containing 0.5 M NaCl (pH 7.5) at 37 °C for 60 min. The reaction was stopped by addition of 2 volumes of methanol. After centrifugation at 14,000 rpm for 10 min, the supernatant was removed and analyzed by LC/MS/MS.

The conditions of series [4]: human, s9, 1 h, 2 µM.
Procedure: as §1
For series [5] the following is noted: rat, plasma, 1 h, 2 µM.
Procedure: as §1
For series [6] the following is noted: human, s9, 1 h, 5 µM.
Procedure: For stability studies, prodrug (5 µM) was incubated in Caco-2 homogenate S9 fraction (0.5 mg protein per mL) for 60 min at 37°C. Concentrations of intact prodrug and released baclofen were determined at zero time and 60 minutes using LC/MS/MS.
The conditions of series [7]: human, plasma, 1 h, 2 µM.
Procedure: as §1

In the case of `CC(=O)OC(OC(=O)NC[C@H](CC(=O)[O-])c1ccc(Cl)cc1)C(C)C.[Na+]` (stereo partly drawn) [(23), Sodium 4-[(1-Acetoxylsobutoxy)carbonylamino]1-(3R)-(4-chlorophenyl)-butanoate], the “% of Baclofen Released” value in series [1] (pH 2) was 0%; in series [1] (pH 7.4), 1%; in series [1] (pH 8) it was 2%; in series [2], 107%; in series [3], 24%; in series [4], 105%. Moreover, the “% of Baclofen Released” value worked out at 93% in series [5], 87% in series [6] and 3% in series [7]. Further, the “% of Prodrug Remaining” value in series [1] (pH 2) was determined as 107%; in series [1] (pH 7.4) it was 89%; in series [1] (pH 8), 90%; in series [2], 3%; in series [3], 82%; in series [4] it was 4%. Besides, the “% of Prodrug Remaining” value in series [5] was 11%; in series [6] it was 15%; in series [7] it was 96%.

Regarding `CC(C)C(=O)OC(OC(=O)NC[C@H](CC(=O)[O-])c1ccc(Cl)cc1)C(C)C.[Na+]` (stereo partly drawn) [(25), Sodium 4-[(1-Isobutanoyloxyisobutoxy)carbonylamino]-(3R)-(4-chlorophenyl)-butanoate], the “% of Baclofen Released” value amounted to 0% in series [1] (pH 2); 0% in series [1] (pH 7.4); 0% in series [1] (pH 8); 98% in series [2]; 84% in series [3]; 91% in series [4]. Moreover, the “% of Baclofen Released” value in series [5] is recorded as 96%; in series [6], 95%; in series [7] it was 4%. The “% of Prodrug Remaining” value in series [1] (pH 2) turned out to be 101%; in series [1] (pH 7.4), 100%; in series [1] (pH 8) it was 100%; in series [2], 1%; in series [3], 22%; in series [4], 4%. In addition, the “% of Prodrug Remaining” value in series [5] was 5%; in series [6], 2%; in series [7] it was 93%.

Turning to `CC(OC(=O)NC[C@H](CC(=O)[O-])c1ccc(Cl)cc1)OC(=O)C(C)C.[Na+]` (stereo partly drawn) [(33), Sodium 4-[(1-Isobutanoyloxyethoxy)carbonylamino]-(3R)-(4-chlorophenyl)-butanoate], the “% of Baclofen Released” value worked out at 0% in series [1] (pH 2); 0% in series [1] (pH 7.4); 0% in series [1] (pH 8); 101% in series [2]; 52% in series [3]; 101% in series [4]. Besides, the “% of Baclofen Released” value in series [5] worked out at 30%; in series [6], 95%; in series [7], 4%. Moreover, the “% of Prodrug Remaining” value in series [1] (pH 2) was found to be 100%; in series [1] (pH 7.4) it was 72%; in series [1] (pH 8), 101%; in series [2] it was 4%; in series [3], 46%; in series [4], 3%. For the same compound, the figures for the “% of Prodrug Remaining” value in series [5], in series [6] and in series [7] were 73%, 3% and 96%, respectively.

For the compound `CC(C)C(=O)O[C@H](C)OC(=O)NC[C@H](CC(=O)[O-])c1ccc(Cl)cc1.[Na+]` [(34), Sodium 4-{[(1S)-Isobutanoyloxyethoxy]-carbonylamino}-(3R)-(4-chlorophenyl) -butanoate], the “% of Baclofen Released” value in series [1] (pH 2) is reported as 0%; in series [1] (pH 7.4), 0%; in series [1] (pH 8) it was 0%; in series [2], 100%; in series [3], 18%; in series [4], 100%. The “% of Baclofen Released” value in series [5] stood at 18%; in series [6], 100%; in series [7], 2%. Moreover, the “% of Prodrug Remaining” value is listed as 100% in series [1] (pH 2); 100% in series [1] (pH 7.4); 100% in series [1] (pH 8); 1% in series [2]; 81% in series [3]; 3% in series [4]. Moreover, the figures for the “% of Prodrug Remaining” value in series [5], in series [6] and in series [7] were 78%, 2% and 90%, respectively.

In the case of `O=C([O-])C[C@@H](CNC(=O)OCOC(=O)c1cccs1)c1ccc(Cl)cc1.[Na+]` [(57), Sodium 4-[(2-Thienylcarbonyloxymethoxy)carbonylamino]-(3R)-(4-chlorophenyl)-butan oate], the “% of Baclofen Released” value in series [1] (pH 2) is given as 0%; in series [1] (pH 7.4), 0%; in series [1] (pH 8), 0%; in series [2], 78%; in series [3], 75%; in series [4], 86%. Moreover, the “% of Baclofen Released” value in series [5] came to 10%; in series [6], 104%; in series [7], 14%. Besides, the “% of Prodrug Remaining” value in series [1] (pH 2) amounted to 100%; in series [1] (pH 7.4), 100%; in series [1] (pH 8), 100%; in series [2], 2%; in series [3], 12%; in series [4], 1%. Further, the “% of Prodrug Remaining” value turned out to be 82% in series [5], 2% in series [6] and 73% in series [7].

Take `CC(C)CC(=O)OCOC(=O)NC[C@H](CC(=O)[O-])c1ccc(Cl)cc1.[Na+]` [(59), Sodium 4-[(3-Methylbutanoyloxymethoxy)carbonylamino]-(3R)-(4-chlorophenyl)-butano ate]: the “% of Baclofen Released” value stood at 0% in series [1] (pH 2); 1% in series [1] (pH 7.4); 2% in series [1] (pH 8); 85% in series [2]; 50% in series [3]; 82% in series [4]. Further, the “% of Baclofen Released” value came out at 85% in series [5], 104% in series [6] and 11% in series [7]. Moreover, the “% of Prodrug Remaining” value in series [1] (pH 2) is 103%; in series [1] (pH 7.4) it was 103%; in series [1] (pH 8), 97%; in series [2], 2%; in series [3] it was 46%; in series [4] it was 1%. The “% of Prodrug Remaining” value in series [5] is given as 2%; in series [6] it was 3%; in series [7], 77%.

With `CC(C)C(=O)OC(OC(=O)NC[C@H](CC(=O)[O-])c1ccc(Cl)cc1)C1CCCCC1.[Na+]` (stereo partly drawn) [(84), Sodium 4-[(1-Isobutanoyloxy-1-cyclohexylmethoxy)carbonylamino]-(3R)-(4-chlorophenyl)-butanoate], the “% of Baclofen Released” value in series [1] (pH 2) was 0%; in series [1] (pH 7.4), 0%; in series [1] (pH 8), 1%; in series [2], 91%; in series [3], 40%; in series [4], 82%. The figures for the “% of Baclofen Released” value in series [5], in series [6] and in series [7] were 11%, 76% and 4%, respectively. The “% of Prodrug Remaining” value in series [1] (pH 2) came to 85%; in series [1] (pH 7.4), 84%; in series [1] (pH 8), 94%; in series [2], 4%; in series [3] it was 47%; in series [4], 2%. The figures for the “% of Prodrug Remaining” value in series [5], in series [6] and in series [7] were 91%, 13% and 89%, respectively.

As to `CCCC(=O)OC(OC(=O)NC[C@H](CC(=O)[O-])c1ccc(Cl)cc1)C1CCCCC1.[Na+]` (stereo partly drawn) [(85), Sodium 4-[(1-Butanoyloxy-1-cyclohexylmethoxy)carbonylamino]-(3R)-(4-chlorophenyl)-butanoate], the “% of Baclofen Released” value was 0% in series [1] (pH 2); 0% in series [1] (pH 7.4); 0% in series [1] (pH 8); 91% in series [2]; 64% in series [3]; 84% in series [4]. The entries for the “% of Baclofen Released” value in series [5], in series [6] and in series [7] were 12%, 82% and 4%, respectively. Besides, the “% of Prodrug Remaining” value in series [1] (pH 2) is on record as 82%; in series [1] (pH 7.4), 92%; in series [1] (pH 8), 93%; in series [2] it was 2%; in series [3], 15%; in series [4] it was 2%. Further, the entries for the “% of Prodrug Remaining” value in series [5], in series [6] and in series [7] were 82%, 4% and 95%, respectively.
